Test [1] has as its system SOD1^G93A mouse model. The test can be described thus: Paw Grip Endurance Test (PaGE). The class given is in vivo, mice. The note with it: TgSOD1-Cromolyn vs TgSOD1-Vehicle. The procedure: The PaGE test was performed as previously described. Briefly, mice were placed on the wire lid of a conventional housing cage that was inverted and held at ˜45 cm above an open cage bottom. […] The largest value from three individual trials was used for analysis.
(§1) 149 male and female age- and litter-matched transgenic (Tg) SOD1^G93A and wild-type (Wt) SOD1^G93A mice were used with the following breakdown: Females (19 WtSOD1-Vehicle, 17 WtSOD1-Cromolyn, 19 TgSOD1-Vehicle, and 17 TgSOD1-Cromolyn) and Males (18 WtSOD1-Vehicle, 21 WtSOD1-Cromolyn, 21 TgSOD1-Vehicle, 17 TgSOD1-Cromolyn).

Test [2] deals with SOD1^G93A mouse model. The test can be described thus: Rotarod. Format: in vivo, mice. The note with it: TgSOD1-Cromolyn vs TgSOD1-Vehicle; 6.3 mg/kg i.p. The procedure:
Mice were placed on a fixed speed (16 rpm) rotating rod (3.0 cm) (Rotamex, Columbus Instruments) as previously described. Mice were trained to remain on the rotarod for 180 seconds once at P40. For each experimental time point (P70, P90, P110, P130, P150), the time mice spent on the rotating rod was calculated up to a maximum of 180 seconds. Three trials were performed for each time point and the greatest value for each session was used for analysis.
as §1
In general terms: The rotarod test checks motor coordination on a turning rod.

In test [3] the test system is SOD1^G93A mouse model. The test can be described thus: Survival. Format: in vivo, mice. The following applies: Mantel-Cox test. As for the experimental part:
149 mice were used in this study. All animal care, husbandry and experimentation were performed according to the guidelines set by the Massachusetts General Hospital Subcommittee on Research Animal Care. These experiments were approved by the Massachusetts General Hospital Institutional Animal Care and Use Committee (2014N000018). All mice were given access to food and water ad libitum. Mice were assessed regularly for motor impairment and euthanized upon onset of major paralysis (neurological scoring=4, see Neurological Score below) to minimize suffering as described previously. […] The endpoint used in this study was based on previously reported criteria by ALS TDI, the loss of self-righting ability within 15 seconds (neurological score=4) or the inability to move to reach food on the cage floor. Mice that reached the humane endpoint were euthanized within 3 hours.
as §1

In test [4] the test system is pro-inflammatory cytokines and chemokines in plasma. The test is described as follows: Meso Scale Discovery multi-spot cytokine assay, plasma. The class given is in vivo, mice. The procedure: Spinal cord frozen tissue was homogenized in ice-cold RIPA buffer (Thermo Fisher Scientific, #8990) supplemented with protease inhibitor cocktail (Thermo Fisher Scientific, #78430). Samples were centrifuged at 45,000 g for 30 minutes at 4° C. using an Optima TL ultracentrifuge and a TLA 120.2 rotor (Beckman Coulter). Expression levels of 10 pro-inflammatory cytokines and chemokines were assessed in the supernatants derived from spinal cord tissue or in the plasma, using an electrochemiluminescence-based multi-array method and MESO Quickplex SQ 120 system (MSD, Rockville, Md., USA). The 96-well V-PLEX Proinflammatory Mouse 1 Kit (Meso Scale Discovery, #K15048D) was used to measure simultaneously IFN-γ, IL-1β, IL-2, IL-4, IL-5, IL-6, CXCL1/KC/GRO, IL-10, IL-12, p70, and TNFα, following the manufacturer's instructions. Briefly, samples were diluted in the calibrator and added to the plate coated with an array of cytokine capture antibodies. Samples were incubated in the plate for 2 hours with shaking at room temperature, followed by washes with the wash buffer provided in the kit. The detection antibody solution was added to each well and the plate was incubated for 2 hours. The plate was washed with the wash buffer and the 2× Read Buffer T was added. The signal was immediately measured on a MESO QuickPlex SQ 120 instrument and was analyzed using the DISCOVERY WORKBENCH 4.0 software (Meso Scale Diagnostics, LLC., Rockville, Md., USA). Protein concentrations in the supernatants or the plasma samples were measured using the Pierce BCA protein assay kit (Thermo Scientific). Values in the graphs represent levels of cytokines normalized to the corresponding protein concentrations. […] Females (19 WtSOD1-Vehicle, 17 WtSOD1-Cromolyn, 19 TgSOD1-Vehicle, and 17 TgSOD1-Cromolyn) and Males (18 WtSOD1-Vehicle, 21 WtSOD1-Cromolyn, 21 TgSOD1-Vehicle, 17 TgSOD1-Cromolyn). […] The same pro-inflammatory panel from Meso Scale Discovery was used to assess the levels of cytokines and chemokines in the plasma of a subset of mice (Females: 13 WtSOD1-Vehicle, 15 WtSOD1-Cromolyn, 6 TgSOD1-Vehicle, and 6 TgSOD1-Cromolyn; and Males: 14 WtSOD1-Vehicle, 10 WtSOD1-Cromolyn, 6 TgSOD1-Vehicle, 3 TgSOD1-Cromolyn). We were able to measure 7 of the 10 pro-inflammatory cytokines in plasma which included IL-1β, IL-2, IL-5, IL-6, CXCL1, IL-10, and TNFα.

For another test, the system named is GPR35. The test is described as follows: GPR35 immunofluorescence, lumbar spinal cord. Format: in vivo, mice. The note with it: TgSOD1-Cromolyn vs TgSOD1-Vehicle. As for the experimental part:
Frozen mouse lumbar spinal cord was sectioned at […] and stained using previously described methods. Tissue sections were fixed with 4% paraformaldehyde and blocked in a mixture of phosphate-buffered saline (PBS), 5% BSA, and normal goat serum. Co-staining was done using antibodies specific for GPR35 (Novus Biologicals, Littleton, Colo.; NBP2-24640) and NeuN (Millipore Sigma, Temecula, Calif.; MAB377 overnight at 4° C. Following three washes with PBS, sections were incubated with Cy3-conjugated goat anti-mouse and FITC-conjugated goat anti-rabbit antibodies (Jackson ImmunoResearch, West Grove, Pa.). Ten 20× fields were imaged from each section and analyzed using open source software from the National Institutes of Health (ImageJ).
as §1

For a further test, the target named is beta-amyloid peptides (Homo sapiens, UniProt P05067). The note with it: cited from earlier work.
Sequence of beta-amyloid peptides (P05067 672-713 limits assumed): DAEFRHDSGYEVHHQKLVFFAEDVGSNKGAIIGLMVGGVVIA
For another test, the system named is SOD1 gene. The note with it: in vitro studies; cited from earlier work.

The text below walks through data of US20210059977A1, “COMBINATION THERAPIES FOR THE TREATMENT OF AMYOTROPHIC LATERAL SCLEROSIS AND RELATED DISORDERS” (The General Hospital Corporation, priority 2018, published 2021).

For `O=C(O)c1cc(=O)c2c(OCC(O)COc3cccc4oc(C(=O)O)cc(=O)c34)cccc2o1` [cromolyn, cromolyn sodium], the PaGE performance result was “significant improvement in PaGE performance” in the test on SOD1^G93A mouse model [1] (6.3 mg/kg i.p., all mice, P120 and P140); “greater deficits in PaGE performance” in the test on SOD1^G93A mouse model [1] (female mice, P100); “significant improvement” in the test on SOD1^G93A mouse model [1] (female mice, P140); “significant improvement in PaGE” in the test on SOD1^G93A mouse model [1] (male mice, P120). The rotarod performance result with SOD1^G93A mouse model [2] is recorded as “no difference in rotarod performance”. For the same compound, the survival entry is recorded as “did not have a significant effect on survival” with SOD1^G93A mouse model [3] (all treated mice, p=0.1096); “significant effect of treatment on female survival” in the test with SOD1^G93A mouse model [3] (female mice, p=0.01); “did not have a significant effect on survival” with SOD1^G93A mouse model [3] (male mice alone, p<0.8831). In addition, the “IL-10 levels in plasma” value in test [4] (TgSOD1-Cromolyn vs TgSOD1-Vehicle, p=0.0095) is “significantly decreased”. For the same compound, the “IL-2 levels in plasma” value in test [4] (TgSOD1-Cromolyn vs TgSOD1-Vehicle, p=0.0211) is on record as “significantly decreased”. The “IL-6 levels in plasma” value in test [4] (TgSOD1-Cromolyn vs TgSOD1-Vehicle, p=0.0273) is recorded as “significantly decreased”. Moreover, the “TNFα levels in plasma” value in test [4] (TgSOD1-Cromolyn vs TgSOD1-Vehicle, p=0.110) is recorded as “trend towards a decrease”. For the same compound, the “IL-1β levels in plasma” value in test [4] (between groups) is given as “no statistically significant difference”. The “IL-5 levels in plasma” value in test [4] (between groups) is on record as “no statistically significant difference”. Further, in the test with GPR35 (p=0.0411), the “neuronal GPR35 levels (co-localized with NeuN)” value is “significant increase in neuronal GPR35 levels”. Moreover, the “GPR35 levels (immunofluorescence intensity)” value in the test with GPR35 (p=0.0449) is given as “significant increase in GPR35 levels”. In addition, the “binding to beta-amyloid peptides and polymerization” value on beta-amyloid peptides was “inhibiting their polymerization to higher order aggregates”. In the test on SOD1 gene, the “effect on SOD1 gene” value was “inhibits the SOD1 gene”.
